Measurements: article PMC6540285, “Evaluation of Protein Kinase Inhibitors with PLK4 Cross-Over Potential in a Pre-Clinical Model of Cancer” (International Journal of Molecular Sciences, 2019)

How the values were obtained:
AURKB (Aurora B) = AURKB (Aurora B) (Homo sapiens, UniProt Q96GD4); assay: SelectScreen kinase profiling, ZLYTE; type: biochemical
BMPR1B (ALK6) = BMPR1B (ALK6) (Homo sapiens, UniProt O00238); assay: SelectScreen kinase profiling, LanthaScreen binding
BRAF = BRAF (Homo sapiens, UniProt P15056); assay: as above
CDK7/cyclin H/MNAT1 = CDK7/cyclin H/MNAT1 (Homo sapiens, UniProt P50613); assay: SelectScreen kinase profiling, Adapta; type: biochemical; settings: CDK7/cyclin H/MNAT1, 10 µM
CDK8/cyclin C = CDK8/cyclin C (Homo sapiens, UniProt P49336); assay: SelectScreen kinase profiling, LanthaScreen binding
CDK9 (Inactive) = CDK9 (Inactive) (Homo sapiens, UniProt P50750); assay: as above
CDKL5 = CDKL5 (Homo sapiens, UniProt O76039); assay: SelectScreen kinase profiling, ZLYTE; type: biochemical; settings: CDKL5, 10 µM
CSNK1D (CK1 delta) = CSNK1D (CK1 delta) (Homo sapiens, UniProt P48730); assay: SelectScreen kinase profiling, ZLYTE; type: biochemical
DCAMKL1 (DCLK1) = DCAMKL1 (DCLK1) (Homo sapiens, UniProt O15075); assay: SelectScreen kinase profiling, ZLYTE; type: biochemical
EEF2K = EEF2K (Homo sapiens, UniProt O00418); assay: SelectScreen kinase profiling, ZLYTE; type: biochemical
FGFR1 = FGFR1 (Homo sapiens, UniProt P11362); assay: SelectScreen kinase profiling, ZLYTE; type: biochemical; settings: FGFR1, 10 µM
ICK = ICK (Homo sapiens, UniProt Q9UPZ9); assay: SelectScreen kinase profiling, LanthaScreen binding
IGF1R = IGF1R (Homo sapiens, UniProt P08069); assay: SelectScreen kinase profiling, ZLYTE; type: biochemical
IKBKB (IKK beta) = IKBKB (IKK beta) (Homo sapiens, UniProt O14920); assay: SelectScreen kinase profiling, ZLYTE; type: biochemical
JAK2 JH1 JH2 V617F = target: T1, JAK2 JH1 JH2 V617F (Homo sapiens, UniProt O60674, V617F); assay: SelectScreen kinase profiling, ZLYTE; type: biochemical
T1 construct: JAK2 JH1 JH2 V617F

KIT V559D = KIT V559D (Homo sapiens, UniProt P10721, V559D); assay: SelectScreen kinase profiling, ZLYTE; type: biochemical
LRRK2 FL = LRRK2 FL (Homo sapiens, UniProt Q5S007); assay: SelectScreen kinase profiling, Adapta; type: biochemical
LTK (TYK1) = LTK (TYK1) (Homo sapiens, UniProt P29376); assay: SelectScreen kinase profiling, ZLYTE; type: biochemical
MAP2K4 (MEK4) = MAP2K4 (MEK4) (Homo sapiens, UniProt P45985); assay: SelectScreen kinase profiling, LanthaScreen binding
MAP3K3 (MEKK3) = MAP3K3 (MEKK3) (Homo sapiens, UniProt Q99759); assay: as above
[1] = target: MAP3K7/MAP3K7IP1 (TAK1-TAB1) (Homo sapiens, UniProt O43318); assay: as above
MAP4K3 (GLK) = MAP4K3 (GLK) (Homo sapiens, UniProt Q8IVH8); assay: as above
MAPK13 (p38 delta) = MAPK13 (p38 delta) (Homo sapiens, UniProt O15264); assay: SelectScreen kinase profiling, ZLYTE; type: biochemical
MINK1 = MINK1 (Homo sapiens, UniProt Q8N4C8); assay: SelectScreen kinase profiling, ZLYTE; type: biochemical; settings: MINK1, 10 µM
NTRK1 (TRKA) = NTRK1 (TRKA) (Homo sapiens, UniProt P04629); assay: SelectScreen kinase profiling, ZLYTE; type: biochemical
PDK1 = PDK1 (Homo sapiens, UniProt O15530); assay: SelectScreen kinase profiling, ZLYTE; type: biochemical; settings: PDK1, 10 µM
PI4KA (PI4K alpha) = PI4KA (PI4K alpha) (Homo sapiens, UniProt P42356); assay: SelectScreen kinase profiling, Adapta; type: biochemical
PIK3C2G (PI3K-C2 gamma) = PIK3C2G (PI3K-C2 gamma) (Homo sapiens, UniProt O75747); assay: SelectScreen kinase profiling, Adapta; type: biochemical
PIK3C3 (hVPS34) = PIK3C3 (hVPS34) (Homo sapiens, UniProt Q8NEB9); assay: SelectScreen kinase profiling, Adapta; type: biochemical
PRKACA (PKA) = PRKACA (PKA) (Homo sapiens, UniProt P17612); assay: SelectScreen kinase profiling, ZLYTE; type: biochemical
PRKD1 (PKC mu) = PRKD1 (PKC mu) (Homo sapiens, UniProt Q15139); assay: SelectScreen kinase profiling, ZLYTE; type: biochemical
RET A883F = RET A883F (Homo sapiens, UniProt P07949, A883F); assay: SelectScreen kinase profiling, ZLYTE; type: biochemical
ROCK2 = ROCK2 (Homo sapiens, UniProt O75116); assay: SelectScreen kinase profiling, ZLYTE; type: biochemical; settings: ROCK2, 10 µM
RPS6KA1 (RSK1) = RPS6KA1 (RSK1) (Homo sapiens, UniProt Q15418); assay: SelectScreen kinase profiling, ZLYTE; type: biochemical
RPS6KA5 (MSK1) = RPS6KA5 (MSK1) (Homo sapiens, UniProt O75582); assay: SelectScreen kinase profiling, ZLYTE; type: biochemical
RPS6KA6 (RSK4) = RPS6KA6 (RSK4) (Homo sapiens, UniProt Q9UK32); assay: SelectScreen kinase profiling, ZLYTE; type: biochemical
SIK1 = SIK1 (Homo sapiens, UniProt P57059); assay: SelectScreen kinase profiling, LanthaScreen binding; settings: SIK1, 10 µM
STK23 (MSSK1) = STK23 (MSSK1) (Homo sapiens, UniProt Q9UPE1); assay: SelectScreen kinase profiling, ZLYTE; type: biochemical
Text: Kinase Technology % Inhibition Avg Kinase Technology % Inhibition Avg

STK38 (NDR) = STK38 (NDR) (Homo sapiens, UniProt Q15208); assay: SelectScreen kinase profiling, LanthaScreen binding

Chain of BRAF (P15056 whole entry): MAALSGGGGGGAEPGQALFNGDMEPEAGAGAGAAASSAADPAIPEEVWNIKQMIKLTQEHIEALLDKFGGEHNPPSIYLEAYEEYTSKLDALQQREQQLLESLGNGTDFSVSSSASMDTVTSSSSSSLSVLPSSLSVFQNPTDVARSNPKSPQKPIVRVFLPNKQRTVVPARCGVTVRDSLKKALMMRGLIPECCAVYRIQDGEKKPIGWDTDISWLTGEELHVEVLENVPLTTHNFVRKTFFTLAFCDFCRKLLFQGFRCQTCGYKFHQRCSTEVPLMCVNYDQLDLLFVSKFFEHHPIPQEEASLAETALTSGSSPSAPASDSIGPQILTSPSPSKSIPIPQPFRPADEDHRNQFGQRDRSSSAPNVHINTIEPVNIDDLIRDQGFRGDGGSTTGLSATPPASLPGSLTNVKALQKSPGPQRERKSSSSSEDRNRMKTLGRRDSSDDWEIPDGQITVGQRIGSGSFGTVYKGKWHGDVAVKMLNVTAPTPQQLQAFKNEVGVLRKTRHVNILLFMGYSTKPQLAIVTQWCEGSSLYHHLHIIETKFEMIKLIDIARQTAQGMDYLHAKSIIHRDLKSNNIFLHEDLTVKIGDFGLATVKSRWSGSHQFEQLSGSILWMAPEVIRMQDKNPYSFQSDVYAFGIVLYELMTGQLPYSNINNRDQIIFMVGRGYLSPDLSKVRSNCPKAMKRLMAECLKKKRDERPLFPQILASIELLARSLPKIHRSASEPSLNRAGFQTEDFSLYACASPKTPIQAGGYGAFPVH
Chain of DCAMKL1 (DCLK1) (O15075 whole entry): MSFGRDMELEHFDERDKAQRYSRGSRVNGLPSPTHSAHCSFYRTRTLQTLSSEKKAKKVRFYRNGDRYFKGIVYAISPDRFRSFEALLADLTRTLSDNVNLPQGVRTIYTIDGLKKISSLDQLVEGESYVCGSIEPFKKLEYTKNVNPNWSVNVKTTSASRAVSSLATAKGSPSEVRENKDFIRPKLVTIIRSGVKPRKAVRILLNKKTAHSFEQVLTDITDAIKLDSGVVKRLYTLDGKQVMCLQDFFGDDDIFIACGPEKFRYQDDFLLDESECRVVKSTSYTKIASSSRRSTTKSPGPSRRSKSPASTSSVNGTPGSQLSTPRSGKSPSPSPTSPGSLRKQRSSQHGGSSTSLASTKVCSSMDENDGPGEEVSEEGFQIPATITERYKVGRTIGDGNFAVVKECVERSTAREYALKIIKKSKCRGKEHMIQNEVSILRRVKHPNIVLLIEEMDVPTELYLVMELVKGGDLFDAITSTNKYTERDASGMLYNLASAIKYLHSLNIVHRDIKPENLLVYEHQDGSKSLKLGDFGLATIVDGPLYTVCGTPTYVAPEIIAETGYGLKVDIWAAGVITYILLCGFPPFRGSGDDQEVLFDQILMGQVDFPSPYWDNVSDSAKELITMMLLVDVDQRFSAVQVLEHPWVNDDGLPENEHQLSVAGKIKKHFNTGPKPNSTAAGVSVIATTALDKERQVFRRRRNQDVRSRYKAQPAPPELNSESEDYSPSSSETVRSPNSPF
Chain of MAP3K7/MAP3K7IP1 (TAK1-TAB1) (O43318 1-303 limits assumed): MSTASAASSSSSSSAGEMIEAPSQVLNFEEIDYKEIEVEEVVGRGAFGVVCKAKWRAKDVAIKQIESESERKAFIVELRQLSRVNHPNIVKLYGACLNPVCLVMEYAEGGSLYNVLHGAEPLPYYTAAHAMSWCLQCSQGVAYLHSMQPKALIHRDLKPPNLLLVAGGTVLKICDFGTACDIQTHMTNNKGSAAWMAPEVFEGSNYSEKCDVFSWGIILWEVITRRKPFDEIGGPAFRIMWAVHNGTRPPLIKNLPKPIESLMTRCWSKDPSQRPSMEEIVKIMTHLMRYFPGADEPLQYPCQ
Chain of MAP3K7/MAP3K7IP1 (TAK1-TAB1) (Q15750 437-504 partner limits assumed): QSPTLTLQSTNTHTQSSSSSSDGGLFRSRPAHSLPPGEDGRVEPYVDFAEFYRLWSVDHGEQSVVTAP
Chain of RPS6KA5 (MSK1) (O75582 whole entry): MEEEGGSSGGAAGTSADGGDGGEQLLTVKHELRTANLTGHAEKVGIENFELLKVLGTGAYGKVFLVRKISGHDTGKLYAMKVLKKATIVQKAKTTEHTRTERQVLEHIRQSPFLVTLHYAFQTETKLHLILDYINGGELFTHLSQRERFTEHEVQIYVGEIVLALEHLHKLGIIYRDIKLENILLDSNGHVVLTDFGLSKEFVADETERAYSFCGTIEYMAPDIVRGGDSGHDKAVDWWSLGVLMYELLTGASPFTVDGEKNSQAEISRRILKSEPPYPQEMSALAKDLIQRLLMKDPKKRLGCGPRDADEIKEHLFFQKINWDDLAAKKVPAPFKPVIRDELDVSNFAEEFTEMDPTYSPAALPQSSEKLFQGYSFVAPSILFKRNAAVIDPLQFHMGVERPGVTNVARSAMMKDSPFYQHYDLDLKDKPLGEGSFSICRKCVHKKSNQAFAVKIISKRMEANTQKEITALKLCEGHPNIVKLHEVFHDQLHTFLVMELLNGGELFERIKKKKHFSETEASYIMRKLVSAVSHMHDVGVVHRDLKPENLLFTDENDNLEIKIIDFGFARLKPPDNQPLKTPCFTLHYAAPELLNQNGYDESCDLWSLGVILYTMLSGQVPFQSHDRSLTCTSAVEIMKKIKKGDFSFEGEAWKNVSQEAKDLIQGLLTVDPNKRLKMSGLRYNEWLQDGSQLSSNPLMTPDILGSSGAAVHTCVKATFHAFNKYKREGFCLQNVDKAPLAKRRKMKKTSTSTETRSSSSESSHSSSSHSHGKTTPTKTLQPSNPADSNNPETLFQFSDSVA
Chain of SIK1 (P57059 whole entry): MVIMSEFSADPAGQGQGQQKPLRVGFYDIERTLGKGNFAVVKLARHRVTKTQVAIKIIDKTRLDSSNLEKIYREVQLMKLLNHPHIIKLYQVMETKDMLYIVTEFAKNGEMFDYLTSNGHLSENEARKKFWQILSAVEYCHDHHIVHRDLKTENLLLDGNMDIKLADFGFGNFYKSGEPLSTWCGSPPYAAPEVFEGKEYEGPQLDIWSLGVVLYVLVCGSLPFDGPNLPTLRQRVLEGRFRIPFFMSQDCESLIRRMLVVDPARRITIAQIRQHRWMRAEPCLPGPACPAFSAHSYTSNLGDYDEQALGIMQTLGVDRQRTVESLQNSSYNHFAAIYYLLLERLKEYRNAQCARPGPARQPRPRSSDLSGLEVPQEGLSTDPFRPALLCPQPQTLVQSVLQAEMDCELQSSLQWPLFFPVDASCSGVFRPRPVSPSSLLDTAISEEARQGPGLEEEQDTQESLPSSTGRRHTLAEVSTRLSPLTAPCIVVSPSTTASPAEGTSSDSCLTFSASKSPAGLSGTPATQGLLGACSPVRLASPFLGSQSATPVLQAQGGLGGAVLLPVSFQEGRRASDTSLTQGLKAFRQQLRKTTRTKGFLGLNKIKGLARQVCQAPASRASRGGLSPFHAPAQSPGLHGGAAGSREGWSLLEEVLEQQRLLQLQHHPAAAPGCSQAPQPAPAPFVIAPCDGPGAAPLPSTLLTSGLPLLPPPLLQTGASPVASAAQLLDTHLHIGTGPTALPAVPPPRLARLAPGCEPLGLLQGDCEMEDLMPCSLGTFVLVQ
T1 sequence (O60674 532-1132 V617F limits assumed): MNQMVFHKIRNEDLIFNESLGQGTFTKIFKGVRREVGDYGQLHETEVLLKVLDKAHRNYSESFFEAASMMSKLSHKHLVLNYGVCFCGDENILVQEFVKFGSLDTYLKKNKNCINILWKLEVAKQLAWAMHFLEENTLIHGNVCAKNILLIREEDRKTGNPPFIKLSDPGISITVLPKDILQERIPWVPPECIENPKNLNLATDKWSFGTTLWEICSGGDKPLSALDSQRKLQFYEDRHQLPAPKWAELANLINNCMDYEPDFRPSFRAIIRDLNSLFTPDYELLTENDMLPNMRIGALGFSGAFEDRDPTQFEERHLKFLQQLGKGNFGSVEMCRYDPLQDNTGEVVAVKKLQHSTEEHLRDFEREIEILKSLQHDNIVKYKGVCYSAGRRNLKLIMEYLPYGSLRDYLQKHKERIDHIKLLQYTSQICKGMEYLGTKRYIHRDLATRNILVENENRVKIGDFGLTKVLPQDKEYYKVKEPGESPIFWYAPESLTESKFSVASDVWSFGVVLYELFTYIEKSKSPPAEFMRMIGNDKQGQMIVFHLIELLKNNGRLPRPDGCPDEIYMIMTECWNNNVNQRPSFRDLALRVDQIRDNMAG
Chain of CDK9 (Inactive) (P50750 whole entry): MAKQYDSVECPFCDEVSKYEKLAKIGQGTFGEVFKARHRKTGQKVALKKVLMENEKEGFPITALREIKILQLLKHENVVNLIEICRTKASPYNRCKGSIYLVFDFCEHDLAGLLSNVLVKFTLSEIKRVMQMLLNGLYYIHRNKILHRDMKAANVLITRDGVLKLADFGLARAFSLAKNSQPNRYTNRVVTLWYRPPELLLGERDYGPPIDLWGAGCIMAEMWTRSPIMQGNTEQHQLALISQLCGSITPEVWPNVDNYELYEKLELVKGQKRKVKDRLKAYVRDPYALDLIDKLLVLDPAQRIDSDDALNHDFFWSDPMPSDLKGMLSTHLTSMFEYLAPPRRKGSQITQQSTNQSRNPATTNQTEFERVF
Chain of PDK1 (O15530 whole entry): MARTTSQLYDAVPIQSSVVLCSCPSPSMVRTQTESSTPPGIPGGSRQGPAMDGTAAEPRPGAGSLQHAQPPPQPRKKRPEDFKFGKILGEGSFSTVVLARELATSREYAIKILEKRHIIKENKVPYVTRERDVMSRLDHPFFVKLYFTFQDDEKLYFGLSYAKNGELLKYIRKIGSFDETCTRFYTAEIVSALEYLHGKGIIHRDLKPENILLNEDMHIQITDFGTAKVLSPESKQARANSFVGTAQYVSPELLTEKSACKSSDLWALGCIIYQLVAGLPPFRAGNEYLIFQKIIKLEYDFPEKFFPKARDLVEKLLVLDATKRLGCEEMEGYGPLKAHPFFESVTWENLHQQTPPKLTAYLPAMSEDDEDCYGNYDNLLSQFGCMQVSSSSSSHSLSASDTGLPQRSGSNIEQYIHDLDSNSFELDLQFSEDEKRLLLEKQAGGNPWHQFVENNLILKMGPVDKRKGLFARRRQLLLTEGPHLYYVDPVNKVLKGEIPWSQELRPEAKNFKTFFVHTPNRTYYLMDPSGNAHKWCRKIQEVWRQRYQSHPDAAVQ

For `O=C(c1ccc(/C=C/c2n[nH]c3ccccc23)cc1)N1CCNCC1` [KW-2449], the inhibition at 10 µM (AURKB (Aurora B)) was 102%, the inhibition at 10 µM (BMPR1B (ALK6)) was 90% and the inhibition at 10 µM (BRAF) was -1%. It also gave an inhibition at 10 µM (CDK7/cyclin H/MNAT1) of 98%, an inhibition at 10 µM (CDK8/cyclin C) of 38% and an inhibition at 10 µM (CDK9 (Inactive)) of 2%. For the same molecule, the inhibition at 10 µM (CDKL5) was 56%, the inhibition at 10 µM (CSNK1D (CK1 delta)) was 53% and the inhibition at 10 µM (DCAMKL1 (DCLK1)) was 57%. It also gave an inhibition at 10 µM (EEF2K) of -1%, an inhibition at 10 µM (FGFR1) of 96% and an inhibition at 10 µM (ICK) of 74%. It also gave an inhibition at 10 µM (IGF1R) of 95%, an inhibition at 10 µM (IKBKB (IKK beta)) of 66% and an inhibition at 10 µM (JAK2 JH1 JH2 V617F) of 94%. For the same molecule, the inhibition at 10 µM (KIT V559D) was 91%, the inhibition at 10 µM (LRRK2 FL) was 100% and the inhibition at 10 µM (LTK (TYK1)) was 90%. For the same molecule, the inhibition at 10 µM (MAP2K4 (MEK4)) was 79%, the inhibition at 10 µM (MAP3K3 (MEKK3)) was 82% and the inhibition at 10 µM [1] was 26%. It also gave an inhibition at 10 µM (MAP4K3 (GLK)) of 72%, an inhibition at 10 µM (MAPK13 (p38 delta)) of 30% and an inhibition at 10 µM (MINK1) of 102%. It also gave an inhibition at 10 µM (NTRK1 (TRKA)) of 98%, an inhibition at 10 µM (PDK1) of 77% and an inhibition at 10 µM (PI4KA (PI4K alpha)) of 7%. The inhibition at 10 µM (PIK3C2G (PI3K-C2 gamma)) was 2%, the inhibition at 10 µM (PIK3C3 (hVPS34)) was -3% and the inhibition at 10 µM (PRKACA (PKA)) was 76%. The inhibition at 10 µM (PRKD1 (PKC mu)) was 97%, the inhibition at 10 µM (RET A883F) was 99% and the inhibition at 10 µM (ROCK2) was 83%. The inhibition at 10 µM (RPS6KA1 (RSK1)) was 94%, the inhibition at 10 µM (RPS6KA5 (MSK1)) was 49% and the inhibition at 10 µM (RPS6KA6 (RSK4)) was 97%. It also gave an inhibition at 10 µM (SIK1) of 82%, an inhibition at 10 µM (STK23 (MSSK1)) of 59% and an inhibition at 10 µM (STK38 (NDR)) of 85%.
